ChEMBL document CHEMBL3400056, “Novel thiazolo[3,2-b]-1,2,4-triazoles derived from naproxen with analgesic/anti-inflammatory properties: Synthesis, biological evaluation and molecular modeling studies” (Bioorg Med Chem, 2015)

test system: Mus musculus; test: Analgesic activity in Swiss albino mouse assessed as latancy of withdrawing tail at 50 mg/kg, po measured after 2 hrs by tail flick test relative to control; format: functional; conditions: not given

**Q.** Which MPE does the source give for COc1ccc2cc(C(C)c3nc4s/c(=C\c5ccc(Br)s5)c(=O)n4n3)ccc2c1 (stereo unspecified) here?
**A.** 38%

**Q.** Which MPE does the source give for COc1ccc2cc(C(C)c3nc4s/c(=C\C=C\c5ccccc5)c(=O)n4n3)ccc2c1 (stereo unspecified) here?
**A.** 28.4%

**Q.** For COc1ccc2cc(C(C)c3n[nH]c(=S)[nH]3)ccc2c1 (stereo unspecified), which MPE is on record?
**A.** 16.8%

test system: Mus musculus; test: Analgesic activity in Swiss albino mouse assessed as latancy of withdrawing tail at 100 mg/kg, po measured after 2 hrs by tail flick test relative to control; format: functional; conditions: not given

**Q.** With COc1ccc2cc(C(C)c3nc4s/c(=C\c5ccc(Br)s5)c(=O)n4n3)ccc2c1 (stereo unspecified) as the molecule, how does the MPE read?
**A.** 41.1%

**Q.** For COc1ccc2cc(C(C)c3nc4s/c(=C\C=C\c5ccccc5)c(=O)n4n3)ccc2c1 (stereo unspecified), which MPE is on record?
**A.** 30.9%

**Q.** Which MPE does the source give for COc1ccc2cc(C(C)c3n[nH]c(=S)[nH]3)ccc2c1 (stereo unspecified) here?
**A.** 22.2%

test system: Mus musculus; test: Analgesic activity in Swiss albino mouse assessed as time of licking paws at 50 mg/kg, po measured after 2 hrs by tail flick test relative to control; format: functional; conditions: not given

**Q.** Which MPE does the source give for COc1ccc2cc(C(C)c3nc4s/c(=C\c5ccc(Br)s5)c(=O)n4n3)ccc2c1 (stereo unspecified) here?
**A.** 29%

**Q.** With COc1ccc2cc(C(C)c3nc4s/c(=C\C=C\c5ccccc5)c(=O)n4n3)ccc2c1 (stereo unspecified) as the molecule, how does the MPE read?
**A.** 15.8%

**Q.** With COc1ccc2cc(C(C)c3n[nH]c(=S)[nH]3)ccc2c1 (stereo unspecified) as the molecule, how does the MPE read?
**A.** 18.7%

test system: Mus musculus; test: Analgesic activity in Swiss albino mouse assessed as time of licking paws at 100 mg/kg, po measured after 2 hrs by tail flick test relative to control; format: functional; conditions: not given

**Q.** For COc1ccc2cc(C(C)c3nc4s/c(=C\c5ccc(Br)s5)c(=O)n4n3)ccc2c1 (stereo unspecified), which MPE is on record?
**A.** 24.4%

**Q.** Which MPE does the source give for COc1ccc2cc(C(C)c3nc4s/c(=C\C=C\c5ccccc5)c(=O)n4n3)ccc2c1 (stereo unspecified) here?
**A.** 24.8%

**Q.** Which MPE does the source give for COc1ccc2cc(C(C)c3n[nH]c(=S)[nH]3)ccc2c1 (stereo unspecified) here?
**A.** 8.2%

test system: Mus musculus; test: Antiinflammatory activity in Swiss albino mouse assessed as inhibition of carrageenan-induced paw edema at 50 mg/kg, po administered 1 hr prior to carrageenan challenge measured after 2 hrs relative to control; format: functional; parameters: scale not given: the % may be the effect or the level left; conditions: not given

**Q.** With COc1ccc2cc(C(C)c3nc4s/c(=C\c5ccc(Br)s5)c(=O)n4n3)ccc2c1 (stereo unspecified) as the molecule, how does the Activity read?
**A.** 51.4%

**Q.** For COc1ccc2cc(C(C)c3nc4s/c(=C\C=C\c5ccccc5)c(=O)n4n3)ccc2c1 (stereo unspecified), which Activity is on record?
**A.** 36.2%

**Q.** For COc1ccc2cc(C(C)c3n[nH]c(=S)[nH]3)ccc2c1 (stereo unspecified), which Activity is on record?
**A.** 30.1%

test system: Mus musculus; test: Antiinflammatory activity in Swiss albino mouse assessed as inhibition of carrageenan-induced paw edema at 100 mg/kg, po administered 1 hr prior to carrageenan challenge measured after 2 hrs relative to control; format: functional; parameters: scale not given: the % may be the effect or the level left; conditions: not given

**Q.** Which Activity does the source give for COc1ccc2cc(C(C)c3nc4s/c(=C\c5ccc(Br)s5)c(=O)n4n3)ccc2c1 (stereo unspecified) here?
**A.** 51.2%

**Q.** With COc1ccc2cc(C(C)c3nc4s/c(=C\C=C\c5ccccc5)c(=O)n4n3)ccc2c1 (stereo unspecified) as the molecule, how does the Activity read?
**A.** 37%

**Q.** Which Activity does the source give for COc1ccc2cc(C(C)c3n[nH]c(=S)[nH]3)ccc2c1 (stereo unspecified) here?
**A.** 21.3%

biological target: T1, Prostaglandin G/H synthase 1 (Ovis aries, UniProt P05979); test: Inhibition of ovine recombinant COX-1 using […] as substrate incubated for 10 mins prior to arachidonic acid addition measured after 2 mins by EIA; conditions: not given
T1 sequence (P05979 whole entry): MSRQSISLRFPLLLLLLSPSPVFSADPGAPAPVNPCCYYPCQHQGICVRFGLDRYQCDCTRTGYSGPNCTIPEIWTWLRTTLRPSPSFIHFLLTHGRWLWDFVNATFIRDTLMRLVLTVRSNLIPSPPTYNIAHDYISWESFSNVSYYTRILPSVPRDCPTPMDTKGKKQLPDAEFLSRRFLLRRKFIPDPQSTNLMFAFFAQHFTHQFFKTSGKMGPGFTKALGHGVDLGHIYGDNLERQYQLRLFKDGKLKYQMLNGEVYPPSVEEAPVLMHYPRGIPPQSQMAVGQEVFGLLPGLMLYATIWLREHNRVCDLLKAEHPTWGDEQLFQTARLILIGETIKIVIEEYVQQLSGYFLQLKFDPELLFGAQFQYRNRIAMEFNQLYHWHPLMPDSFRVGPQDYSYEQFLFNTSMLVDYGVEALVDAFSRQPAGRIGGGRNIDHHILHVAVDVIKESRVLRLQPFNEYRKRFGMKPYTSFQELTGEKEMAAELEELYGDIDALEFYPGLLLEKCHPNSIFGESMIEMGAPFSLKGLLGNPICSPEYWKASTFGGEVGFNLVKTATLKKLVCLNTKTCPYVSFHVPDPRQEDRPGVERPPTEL

**Q.** For COc1ccc2cc(C(C)c3nc4s/c(=C\c5ccc(Br)s5)c(=O)n4n3)ccc2c1 (stereo unspecified), which IC50 is on record?
**A.** 39.8 µM

biological target: T2, Prostaglandin G/H synthase 2 (Homo sapiens, UniProt P35354); test: Inhibition of human recombinant COX-2 using […] as substrate incubated for 10 mins prior to arachidonic acid addition measured after 2 mins by EIA; conditions: not given
T2 sequence (P35354 whole entry): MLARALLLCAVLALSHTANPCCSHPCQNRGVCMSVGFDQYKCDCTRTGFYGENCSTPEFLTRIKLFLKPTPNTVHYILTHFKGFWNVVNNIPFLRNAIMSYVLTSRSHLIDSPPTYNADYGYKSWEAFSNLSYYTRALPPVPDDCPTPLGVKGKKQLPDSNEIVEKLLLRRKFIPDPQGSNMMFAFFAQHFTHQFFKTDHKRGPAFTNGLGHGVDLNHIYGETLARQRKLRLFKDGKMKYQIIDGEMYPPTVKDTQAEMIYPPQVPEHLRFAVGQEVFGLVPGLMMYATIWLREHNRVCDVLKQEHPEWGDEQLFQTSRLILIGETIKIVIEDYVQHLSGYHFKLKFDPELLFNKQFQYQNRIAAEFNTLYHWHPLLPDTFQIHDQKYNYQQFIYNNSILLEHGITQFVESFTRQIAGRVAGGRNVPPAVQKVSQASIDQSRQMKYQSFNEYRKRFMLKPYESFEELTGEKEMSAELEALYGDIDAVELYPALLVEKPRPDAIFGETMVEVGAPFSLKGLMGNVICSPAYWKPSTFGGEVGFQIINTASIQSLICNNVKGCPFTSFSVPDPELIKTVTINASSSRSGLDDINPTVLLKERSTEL

**Q.** Which IC50 does the source give for COc1ccc2cc(C(C)c3nc4s/c(=C\c5ccc(Br)s5)c(=O)n4n3)ccc2c1 (stereo unspecified) here?
**A.** 17.3 µM

test system: not listed separately; test: Selectivity ratio of IC50 for ovine recombinant COX-1 to IC50 for human recombinant COX-2; conditions: not given

**Q.** Which Ratio IC50 does the source give for COc1ccc2cc(C(C)c3nc4s/c(=C\c5ccc(Br)s5)c(=O)n4n3)ccc2c1 (stereo unspecified) here?
**A.** 2.3

test system: Mus musculus; test: Gastrointestinal toxicity in Swiss albino mouse assessed as ulcer index at 50 mg/kg, po measured after 2 hrs; format: organism-based; parameters: dose 50 mg/kg, route oral; conditions: in vivo

**Q.** With COc1ccc2cc(C(C)c3nc4s/c(=C\c5ccc(Br)s5)c(=O)n4n3)ccc2c1 (stereo unspecified) as the molecule, how does the UI read?
**A.** 1.8

**Q.** For COc1ccc2cc(C(C)c3nc4s/c(=C\C=C\c5ccccc5)c(=O)n4n3)ccc2c1 (stereo unspecified), which UI is on record?
**A.** 2.4

**Q.** With COc1ccc2cc(C(C)c3n[nH]c(=S)[nH]3)ccc2c1 (stereo unspecified) as the molecule, how does the UI read?
**A.** 2.1

test system: Mus musculus; test: Gastrointestinal toxicity in Swiss albino mouse assessed as ulcer index at 100 mg/kg, po measured after 2 hrs; format: organism-based; parameters: dose 100 mg/kg, route oral; conditions: in vivo

**Q.** For COc1ccc2cc(C(C)c3nc4s/c(=C\c5ccc(Br)s5)c(=O)n4n3)ccc2c1 (stereo unspecified), which UI is on record?
**A.** 2.6

**Q.** With COc1ccc2cc(C(C)c3nc4s/c(=C\C=C\c5ccccc5)c(=O)n4n3)ccc2c1 (stereo unspecified) as the molecule, how does the UI read?
**A.** 3.2

**Q.** With COc1ccc2cc(C(C)c3n[nH]c(=S)[nH]3)ccc2c1 (stereo unspecified) as the molecule, how does the UI read?
**A.** 2.3

test system: Mus musculus; test: Acute toxicity in Swiss albino mouse assessed as mortality at 50 to 100 mg/kg, po measured after 6 hrs to 14 days; format: organism-based; parameters: dose 50-100 mg/kg, route oral; conditions: in vivo

**Q.** For COc1ccc2cc(C(C)c3nc4s/c(=C\c5ccc(Br)s5)c(=O)n4n3)ccc2c1 (stereo unspecified), which Activity is on record?
**A.** Non-toxic

**Q.** For COc1ccc2cc(C(C)c3nc4s/c(=C\C=C\c5ccccc5)c(=O)n4n3)ccc2c1 (stereo unspecified), which Activity is on record?
**A.** Non-toxic

**Q.** With COc1ccc2cc(C(C)c3n[nH]c(=S)[nH]3)ccc2c1 (stereo unspecified) as the molecule, how does the Activity read?
**A.** Non-toxic

test system: Mus musculus; test: Acute toxicity in Swiss albino mouse assessed as weight loss at 50 to 100 mg/kg, po measured up to 14 days; format: organism-based; parameters: dose 50-100 mg/kg, route oral; conditions: in vivo, 336 h

**Q.** With COc1ccc2cc(C(C)c3nc4s/c(=C\c5ccc(Br)s5)c(=O)n4n3)ccc2c1 (stereo unspecified) as the molecule, how does the Activity read?
**A.** Non-toxic

**Q.** Which Activity does the source give for COc1ccc2cc(C(C)c3nc4s/c(=C\C=C\c5ccccc5)c(=O)n4n3)ccc2c1 (stereo unspecified) here?
**A.** Non-toxic

**Q.** With COc1ccc2cc(C(C)c3n[nH]c(=S)[nH]3)ccc2c1 (stereo unspecified) as the molecule, how does the Activity read?
**A.** Non-toxic

test system: Mus musculus; test: Acute toxicity in Swiss albino mouse assessed as behavioral changes at 50 to 100 mg/kg, po measured up to 14 days; format: organism-based; parameters: dose 50-100 mg/kg, route oral; conditions: in vivo, 336 h

**Q.** With COc1ccc2cc(C(C)c3nc4s/c(=C\c5ccc(Br)s5)c(=O)n4n3)ccc2c1 (stereo unspecified) as the molecule, how does the Activity read?
**A.** Non-toxic

**Q.** Which Activity does the source give for COc1ccc2cc(C(C)c3nc4s/c(=C\C=C\c5ccccc5)c(=O)n4n3)ccc2c1 (stereo unspecified) here?
**A.** Non-toxic

**Q.** With COc1ccc2cc(C(C)c3n[nH]c(=S)[nH]3)ccc2c1 (stereo unspecified) as the molecule, how does the Activity read?
**A.** Non-toxic
